Measurements from patent publication US20060040122A1, “Antimicrobial drywall” (Verichem, Inc., priority 2004, published 2006).
Counter-ions that a name gives are not always drawn.

Key:
[1] = tested on: artificial bacterial consortium containing approximately equal numbers of six bacterial strains; experiment: Synergism dose protocol: growth inhibition of a bacterial consortium in synthetic white water (O.D. 650 nm); format: cell-based; settings: end point 50% inhibition of bacterial growth; pH 5.5; SI less than 1 = synergism
Experimental: O-phenylphenol was tested in combination with DGH. The synergism of the blends was determined using a dose protocol. The combinations were evaluated in synthetic white water with pH value of 5.5. The materials were tested against an artificial bacterial consortium containing approximately equal numbers of six bacterial strains. Although the test strains are representative of organisms present in paper mill systems, the effect is not limited to these bacteria. Two of the strains were Kiebsiella pneumoia (ATCC 13883) and Pseudomonas aeruginosa (ATCC 15442). […] Optical density (O>D>) readings at 650 nm were taken initially (t0) and after 4 hours (t4) of incubation. […]
The inhibition values can be plotted versus dosage for each active and the particular blend. […] In the examples (tables) below, the 50 values are expressed as parts per million (ppm) of active material.
The synergism index (SI) was calculated by the equation below, which was proposed by F. C. […]
QA=quantity of compound A in mixture, producing the end point
Qa=quantity of compound A1 acting alone, producing the end point
QB=quantity of compound B in mixture, producing the end point
Qb=quantity of compound B1 acting alone, producing the end point If SI is less than 1, synergism exists; if SI is greater than 1, antagonism exists; if SI is equal to 1, an additive effect exists.

[2] = tested on: Penicillium pinophillum; experiment: Minimum Inhibitory Concentration synergy test on fungi (Kull et al procedure); format: cell-based
Source text: (§1) The procedure followed is adapted from and follows very closely, the procedure described in the Kull et al article. The concentrations listed in Table 1 are the Minimum Inhibitory Concentrations.
(§2) In Table 3, synergism test results are summarized for a 1:26 weight ratio of OPP:DGH against three molds, using the same test system as for Table 1
(§3) Synergism has also been shown for combinations of DGH and NaMetam (sodium methyldithiocarbamate). The Table 5 results were obtained in a manner similar to those of Table 1: […]

[3] = tested on: Mixed inoculum; experiment: as above; format: cell-based
Source text: as §1, §2, §3

[4] = tested on: Aspergillus niger; experiment: as above; format: cell-based
Source text: as §1, §2, §3

[5] = tested on: Wild strain - Alternaria sp.; experiment: as above; format: cell-based
Source text: as §1, §2, §3

[6] = tested on: Aureobasidium pullulans ATCC 9348, Aspergillus niger ATCC 6275, Penicillium sp. ATCC 9849; experiment: ASTM Test Method D-3273 00, resistance to surface mold fungi and mildew, in adhesives; settings: similar tests, same organisms; in Titebond Solvent Free Fast Grab FRP Adhesive and Titebond Solvent Free Subfloor Adhesive
Source text: In addition to experiments as described above, tests were made to compare combinations of DGH (dodecyl guanidine hydrochloride) and OPP against microorganisms known to generate what is commonly known as mildew, when used in caulking and/or adhesive materials used in bathtubs, showers and the like. ASTM (American Society for Testing Materials) Test Method D-3273 00, dealing with resistance to surface mold fungi and mildew was used. Generally, this is an accelerated test calling for a test chamber held at a relative humidity of 95 to 98% and a temperature of 32.5±1° C. (90±2° F.).
Five commercial adhesive compositions known to be susceptible to mildew growth were tested using the microorgainsms Aureobasidium pullulans ATCC 9348, Aspergillus niger ATCC 6275, Penicillium sp. ATCC 9849.
Following this test, a composition comprising 10 g of OPP and 30 g of dodecyl guanidine hydrochloride (DGH) was incorporated into samples of Titebond™ Professional Tub Surround Adhesive at concentrations of 150, 250, 500, 750, and 1000 ppm and the adhesive was tested in the same manner as in Table 2. At 28 days, all of the DGH/OPP compositions were rated at 10.

[7] = Table 1, Minimum Inhibitory Concentration, Penicillium pinophillum
[8] = Table 3, Penicillum pinophillum
[9] = Table 5, Penicillum pinophillum
[10] = Table 1, Minimum Inhibitory Concentration, Mixed inoculum
[11] = Table 1, Minimum Inhibitory Concentration
[12] = Table 1, Minimum Inhibitory Concentration, Wild strain - Alternaria sp.
[13] = Table 3, Wild strain - Atlernaria sp.
[14] = Table 5, Wild Strain - Alternaria sp.

`CCCCCCCCCCCCNC(=N)N` [DGH, Dodecyl guanidine hydrochloride] was tested, and the “Synergy Index” value [1] was 1.00, the “Concentration of DGH alone” value [2, 7] was 62.5 and the “DGH conc (ppm) alone” value [2, 8] was 62.5 ppm. The “Conc. Of DGH alone” value [2, 9] was 62.5, the “Concentration of DGH alone” value [3, 10] was 125 and the “DGH conc (ppm) alone” value ([3]; Table 3, Mixed inoculum) was 125 ppm. For the same molecule, the “Conc. Of DGH alone” value ([3]; Table 5, Mixed Inoculum) was 62.5, the “Concentration of DGH alone” value [4, 11] was 62.5 and the “DGH conc (ppm) alone” value ([4]; Table 3) was 62.5 ppm. The “Conc. Of DGH alone” value ([4]; Table 5) was 62.5, the “Concentration of DGH alone” value [5, 12] was 125 and the “DGH conc (ppm) alone” value [5, 13] was 125 ppm. For the same molecule, the “Conc. Of DGH alone” value [5, 14] was 62.5.
For `CNC(=S)[S-].[Na+]` [NaMetam, sodium methyldithiocarbamate], the “Conc of NaMetam alone” value [2, 9] was 31.2, the “Conc of NaMetam alone” value ([3]; Table 5, Mixed Inoculum) was 250 and the “Conc of NaMetam alone” value ([4]; Table 5) was 31.2. The “Conc of NaMetam alone” value [5, 14] was 125.
In the case of `[Na+].[O-]c1ccccc1-c1ccccc1` [NaOPP, sodium orthophenylphenate], the “Synergy Index” value [1] is reported as 1.00.
For `Oc1ccccc1-c1ccccc1` [OPP, o-phenylphenol], the “Concentration of OPP alone” value [2, 7] was 15.6, the “OPP conc (ppm) alone” value [2, 8] was 15.6 ppm and the “Concentration of OPP alone” value [3, 10] was 15.6. For the same molecule, the “OPP conc (ppm) alone” value ([3]; Table 3, Mixed inoculum) was 15.6 ppm, the “Concentration of OPP alone” value [4, 11] was 15.6 and the “OPP conc (ppm) alone” value ([4]; Table 3) was 15.6 ppm. The “Concentration of OPP alone” value [5, 12] was 15.6 and the “OPP conc (ppm) alone” value [5, 13] was 15.6 ppm.
With dodecyl guanidine acetate [DGA] the mildew inhibition [6] was “effective mildew inhibitors”.
